From patent US8765809B2, “Ester derivative and use thereof” (Ajinomoto Co., Inc., priority 2006, dated 2014)

System: auricle of hairless mouse
Test: Measurement of external blood circulation enhancing action: vasodilatory effect (red spots) after application to the ear
Assay type: in vivo, hairless mouse (HR-1, female)
Set-up: key to Vasodilatory effect for hairless mouse (red spots) / Vasodilatory effect on hairless mouse (red spots): O: clear red spots is confirmed; Δ: weak red spots is confirmed; x: no development of red spots
Conditions: for Vasodilatory effect on hairless mouse (red spots) / red spots observed (note, words) / red spots almost disappeared at / weak red spots were observed at, time after application / red spots were observed at, time after application / red spots at 1 hr after application: 5 wt % (ethanol); for vasodilatory / blood circulation enhancing effect, summary in words: summary of Tables 2 to 4; for red spots at 1 hr after application: 1 hr later
From the text: The compound of each Example, capsinoid derivative and capsaicin were compared for vasodilatory effect using auricle of hairless mouse. A sample was applied to the right ear of hairless mouse (HR-1, female), and a control was applied to the left ear. […]

[1] = 5 wt % (liquid paraffin) as printed, second column of Table 2
[2] = 5 wt % (liquid paraffin), first column of Table 2
[3] = application of 5 wt % in liquid paraffin

| Compound | Vasodilatory effect on hairless mouse (red spots) | Vasodilatory effect for hairless mouse (red spots) [1] | Vasodilatory effect for hairless mouse (red spots) [2] | red spots disappeared in [3] | vasodilatory / blood circulation enhancing effect, summary in words | further results |
| --- | --- | --- | --- | --- | --- | --- |
| COc1cc(CNC(=O)CCCC/C=C/C(C)C)ccc1O [capsaicin, reference compound] | ∘ | ∘ | ∘ | – | – | Vasodilatory effect for hairless mouse (red spots) (0.005 wt % (ethanol)): Δ; Vasodilatory effect for hairless mouse (red spots) (0.05 wt % (ethanol)): ∘; Vasodilatory effect for hairless mouse (red spots) (0.5 wt % (ethanol)): ∘; red spots observed (note, words): Strong red spots were observed.; red spots were observed even after lapse of (application of 1 wt % in liquid paraffin): lapse of 2 hr |
| COc1cc(COC(=O)CCCC/C=C/C(C)C)ccc1O [capsiate, 4-hydroxy-3-methoxybenzyl (E)-8-methyl-6-nonenoate, reference compound] | ∘ | Δ | ∘ | – | – | red spots observed (note, words): Clear red spots were observed.; weak red spots were observed even after lapse of [3]: lapse of 90 min |
| COc1cc(CCCOC(=O)CCCCCCC(C)C)ccc1O [compound J, 3-(3-methoxy-4-hydroxyphenyl)propyl 8-methylnonanoate] | x | – | x | – | – | blood circulation enhancing effect (note, words) [3]: Application of 5 wt %: no blood |
| COc1cc(CCCOC(=O)CCCCCC(C)C)ccc1O [compound J-1, 3-(3-methoxy-4-hydroxyphenyl)propyl 7-methyloctanoate] | ∘ | x | Δ | spots disappeared in 1 hr | weak blood circulation enhancing effect | red spots almost disappeared at: almost disappeared at 30 min later.; weak red spots were observed at, time after application: Weak red spots were observed at 10 min |
| COc1cc(CCCOC(=O)CCCCC(C)C)ccc1O [compound J-2, 3-(3-methoxy-4-hydroxyphenyl)propyl 6-methylheptanoate] | ∘ | x | Δ | spots disappeared in 1 hr | weak blood circulation enhancing effect | red spots almost disappeared at: almost disappeared at 30 min later.; weak red spots were observed at, time after application: Weak red spots were observed at 10 min |
| COc1cc(CCCOC(=O)CCCC(C)C)ccc1O [compound J-3, 3-(3-methoxy-4-hydroxyphenyl)propyl 5-methylhexanoate] | ∘ | x | Δ | spots disappeared in 1 hr | weak blood circulation enhancing effect | red spots almost disappeared at: almost disappeared at 30 min later.; weak red spots were observed at, time after application: Weak red spots were observed at 10 min |
| COc1cc(CCCOC(=O)CCC(C)C)ccc1O [compound J-4, 3-(3-methoxy-4-hydroxyphenyl)propyl 4-methylpentanoate] | ∘ | x | Δ | spots disappeared in 1 hr | weak blood circulation enhancing effect | red spots almost disappeared at: almost disappeared at 30 min later.; weak red spots were observed at, time after application: Weak red spots were observed at 10 min |
| CCCCCC(=O)OCCCc1ccc(O)c(OC)c1 [compound J-5, 3-(3-methoxy-4-hydroxyphenyl)propyl n-hexanoate] | Δ | x | Δ | spots disappeared in 1 hr | weak blood circulation enhancing effect | red spots almost disappeared at: almost disappeared at 30 min later.; weak red spots were observed at, time after application: Weak red spots were observed at 10 min |
| COc1cc(CC(=O)OCCCCCCCC(C)C)ccc1O [compound K, 8-methylnonyl homovanillate] | – | – | ∘ | – | potent vasodilatory effect | weak red spots were observed even after lapse of [3]: lapse of 2 hr |
| COc1cc(CC(=O)OCCCCCCC(C)C)ccc1O [compound K-1, 7-methyloctyl homovanillate] | – | ∘ | ∘ | – | potent vasodilatory effect | Vasodilatory effect for hairless mouse (red spots) (0.005 wt % (ethanol)): Δ; Vasodilatory effect for hairless mouse (red spots) (0.05 wt % (ethanol)): ∘; Vasodilatory effect for hairless mouse (red spots) (0.5 wt % (ethanol)): ∘; red spots were observed even after lapse of [3]: lapse of 90 min |
| CC[C@H](C)CCCCCOC(=O)Cc1ccc(O)c(OC)c1 [compound K-2, (S)-(+)-6-methyloctyl homovanillate] | – | ∘ | ∘ | – | potent vasodilatory effect | Vasodilatory effect for hairless mouse (red spots) (0.005 wt % (ethanol)): Δ; Vasodilatory effect for hairless mouse (red spots) (0.05 wt % (ethanol)): ∘; Vasodilatory effect for hairless mouse (red spots) (0.5 wt % (ethanol)): ∘; red spots were observed even after lapse of [3]: lapse of 90 min |
| COc1cc(CC(=O)OCCCCCC(C)C)ccc1O [compound K-3, 6-methylheptyl homovanillate] | – | ∘ | ∘ | – | potent vasodilatory effect | Vasodilatory effect for hairless mouse (red spots) (0.005 wt % (ethanol)): Δ; Vasodilatory effect for hairless mouse (red spots) (0.05 wt % (ethanol)): ∘; Vasodilatory effect for hairless mouse (red spots) (0.5 wt % (ethanol)): ∘; red spots were observed even after lapse of [3]: lapse of 90 min |
| COc1cc(CCC(=O)OCCCCCCCC(C)C)ccc1O [compound L, 8-methylnonyl 3-(4-hydroxy-3-methoxyphenyl)propionate] | – | – | ∘ | – | potent vasodilatory effect | red spots were observed even after lapse of [3]: lapse of 90 min |
| COc1cc(CCC(=O)OCCCCCCC(C)C)ccc1O [compound L-1, 7-methyloctyl 3-(4-hydroxy-3-methoxyphenyl)propionate] | ∘ | Δ | ∘ | spots disappeared in 1 hr | potent vasodilatory effect | red spots were observed at, time after application: Red spots were observed at 5 min; red spots at 1 hr after application: thin red spots remained. L-4 showed |
| COc1cc(CCC(=O)OCCCCCC(C)C)ccc1O [compound L-2, 6-methylheptyl 3-(4-hydroxy-3-methoxyphenyl)propionate] | ∘ | Δ | ∘ | spots disappeared in 1 hr | potent vasodilatory effect | red spots were observed at, time after application: Red spots were observed at 5 min; red spots at 1 hr after application: thin red spots remained. L-4 showed |
| COc1cc(CCC(=O)OCCCCC(C)C)ccc1O [compound L-3, 5-methylhexyl 3-(4-hydroxy-3-methoxyphenyl)propionate] | ∘ | Δ | ∘ | spots disappeared in 1 hr | potent vasodilatory effect | red spots were observed at, time after application: Red spots were observed at 5 min; red spots at 1 hr after application: thin red spots remained. L-4 showed |
| CC[C@H](C)CCCCCOC(=O)CCc1ccc(O)c(OC)c1 [compound L-4, (S)-(+)-6-methyloctyl 3-(4-hydroxy-3-methoxyphenyl)propionate] | ∘ | ∘ | ∘ | – | potent vasodilatory effect | red spots were observed at, time after application: Red spots were observed at 5 min; red spots at 1 hr after application: strong red spots after 1 hr.; weak red spots were observed even after lapse of [3]: lapse of 1 hr |
| COc1cc(/C=C/C(=O)OCCCCCCCC(C)C)ccc1O [compound Q-1, 8-methylnonyl ferulate] | x | – | x | – | – | blood circulation enhancing effect (note, words) [3]: Application of 5 wt %: no blood |
| COc1cc(/C=C/C(=O)OCCCCCCC(C)C)ccc1O [compound Q-2, 7-methyloctyl ferulate] | x | – | x | – | – | blood circulation enhancing effect (note, words) [3]: Application of 5 wt %: no blood |
| COc1cc(/C=C/C(=O)OCCCCCC(C)C)ccc1O [compound Q-3, 6-methylheptyl ferulate] | x | – | x | – | – | blood circulation enhancing effect (note, words) [3]: Application of 5 wt %: no blood |
| COc1cc(COC(=O)CCCCCCC(C)C)ccc1O [dihydrocapsiate, 4-hydroxy-3-methoxybenzyl 8-methylnonanoate, reference compound] | – | Δ | ∘ | – | – | weak red spots were observed even after lapse of [3]: lapse of 90 min |
| COc1cc(COC(=O)CCCCCC(C)C)ccc1O [nordihydrocapsiate, 4-hydroxy-3-methoxybenzyl 7-methyl-octanoate, reference compound] | – | Δ | ∘ | – | – | weak red spots were observed even after lapse of [3]: lapse of 90 min |
